Test results published in patent publication US20020026053A1, “Novel 3-(substituted) -2- indolinones compounds and use thereof as inhibitors of protein kinase activity” (priority 1997, published 2002).

Biological target: T1, EGFR (Homo sapiens, UniProt P00533)
T1 construct: endogenous in cells; host or cells: A431 cells (lysate, captured with SUMO1 anti-EGFR antibody)
Experiment: Biochemical EGFR Assay
Set-up: concentration or dose not given beside the values
Procedure, shortened: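 EGFR from A431 lysate was captured on anti-EGFR-coated wells and preincubated 30 min with compound (diluted 1:10 in TBS) at room temperature. After ATP/MnCl2 phosphorylation for 5 min, the reaction was stopped with EDTA. Phosphotyrosine was detected by ELISA (anti-phosphotyrosine, peroxidase conjugate, ABTS) at 410 nm.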

T1 sequence (P00533 25-1210): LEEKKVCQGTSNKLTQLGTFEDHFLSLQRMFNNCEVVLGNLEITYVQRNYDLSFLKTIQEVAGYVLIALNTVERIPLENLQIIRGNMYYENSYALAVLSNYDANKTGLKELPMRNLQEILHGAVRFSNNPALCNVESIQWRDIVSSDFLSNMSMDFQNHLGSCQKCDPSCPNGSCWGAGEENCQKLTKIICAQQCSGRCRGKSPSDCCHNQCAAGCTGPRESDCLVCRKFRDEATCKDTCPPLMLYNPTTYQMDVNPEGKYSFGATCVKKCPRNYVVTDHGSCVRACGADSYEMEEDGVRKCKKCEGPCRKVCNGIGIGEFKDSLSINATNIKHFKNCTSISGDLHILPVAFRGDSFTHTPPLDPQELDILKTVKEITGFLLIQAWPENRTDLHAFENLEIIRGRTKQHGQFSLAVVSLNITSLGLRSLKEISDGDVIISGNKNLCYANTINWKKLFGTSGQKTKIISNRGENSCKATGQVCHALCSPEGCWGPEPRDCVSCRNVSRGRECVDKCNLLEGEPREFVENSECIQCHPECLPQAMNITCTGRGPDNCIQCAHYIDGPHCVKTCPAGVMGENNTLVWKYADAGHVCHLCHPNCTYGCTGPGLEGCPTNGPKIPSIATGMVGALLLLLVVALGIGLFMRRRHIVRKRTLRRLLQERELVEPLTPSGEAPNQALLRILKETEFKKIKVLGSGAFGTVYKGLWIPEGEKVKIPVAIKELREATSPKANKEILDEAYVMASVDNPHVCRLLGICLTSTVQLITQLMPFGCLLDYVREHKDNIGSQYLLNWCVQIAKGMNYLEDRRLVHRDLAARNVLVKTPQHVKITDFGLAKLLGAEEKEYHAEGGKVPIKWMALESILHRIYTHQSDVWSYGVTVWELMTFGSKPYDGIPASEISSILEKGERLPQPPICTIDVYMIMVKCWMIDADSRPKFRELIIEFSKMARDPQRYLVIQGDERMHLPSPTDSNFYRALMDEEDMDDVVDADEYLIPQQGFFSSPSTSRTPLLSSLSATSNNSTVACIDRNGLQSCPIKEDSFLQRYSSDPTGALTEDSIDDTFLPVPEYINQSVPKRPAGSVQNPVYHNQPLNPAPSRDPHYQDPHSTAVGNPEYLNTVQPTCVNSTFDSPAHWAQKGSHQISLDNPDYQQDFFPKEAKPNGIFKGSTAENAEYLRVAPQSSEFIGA

Structure (SMILES)	Biochem EGFR % Inhibition (P.167)
Cc1c(Br)cc(Br)c2c1C(=Cc1ccc([N+](=O)[O-])o1)C(=O)N2 [10718/H11]	4.4%
O=C1Nc2ccc(S(=O)(=O)N3CCOCC3)cc2C1=Cc1cc(F)cc(F)c1 [10735/F04]	10.6%
Cc1c(Br)cc(Br)c2c1C(=Cc1cccc(F)c1O)C(=O)N2 [10734/H08]	2.9%
O=C1Nc2ccc(S(=O)(=O)Nc3ccc(C(F)(F)F)cc3)cc2C1=Cc1ccc(-c2ccccc2)cc1 [10735/E11]	10.1%
Cc1c(Br)cc(Br)c2c1C(=Cc1cc(Br)cc(Br)c1O)C(=O)N2 [10734/H07]	6.6%
O=C1Nc2ccc(S(=O)(=O)N3CCOCC3)cc2C1=Cc1cccc2ccccc12 [10735/F09]	0.0%
CNS(=O)(=O)c1ccc2c(c1)C(=Cc1ccc(F)c(F)c1)C(=O)N2 [10735/D03]	7.5%
Cc1c(Br)ccc2c1C(=Cc1ccc(Cl)cc1Cl)C(=O)N2 [10735/C10]	−14.4%
O=C1Nc2ccc(S(=O)(=O)Nc3ccc(C(F)(F)F)cc3)cc2C1=Cc1cccc(C(F)(F)F)c1 [10735/E05]	30.6%
O=C1Nc2ccc(CCCl)cc2C1=Cc1cc(F)cc(F)c1 [10735/G04]	22.8%
O=C1Nc2c(Br)cc(Br)cc2C1=Cc1cc(C(F)(F)F)cc(C(F)(F)F)c1 [10735/A06]	24.9%
COc1ccc(C=C2C(=O)Nc3c(Br)cc(Br)c(C)c32)c(OC)c1 [10719/H04]	−0.5%
O=C1Nc2c(Br)cc(Br)cc2C1=Cc1ccc(Cl)cc1Cl [10735/A10]	10.2%
N#Cc1ccccc1C=C1C(=O)Nc2ccc(I)cc21 [10735/B07]	47.7%
CCc1c(C)[nH]c(C=C2C(=O)Nc3c(Br)cc(Br)c(C)c32)c1C [10719/H05]	7.9%
O=C1Nc2ccc(S(=O)(=O)N3CCOCC3)cc2C1=Cc1ccc(F)c(F)c1 [10735/F03]	19.1%
O=C1Nc2ccc(I)cc2C1=Cc1ccc(-c2ccccc2)cc1 [10735/B11]	52.4%
O=C1Nc2c(Br)cc(Br)cc2C1=Cc1cc(F)cc(F)c1 [10735/A04]	5.0%
Cc1c(O)ccc(C=C2C(=O)Nc3c(Br)cc(Br)c(C)c32)c1O [10718/H09]	34.2%
O=C1Nc2ccc(I)cc2C1=Cc1ccc(F)c(F)c1 [10735/B03]	42.9%
N#Cc1ccccc1C=C1C(=O)Nc2ccc(S(=O)(=O)Nc3ccc(C(F)(F)F)cc3)cc21 [10735/E07]	27.4%
N#Cc1ccccc1C=C1C(=O)Nc2c(Br)cc(Br)cc21 [10735/A07]	18.7%
O=C1Nc2ccc(I)cc2C1=Cc1c(F)cccc1F [10735/B08]	24.5%
Cc1c(Br)ccc2c1C(=Cc1c(F)cccc1F)C(=O)N2 [10735/C08]	−11.3%
O=C1Nc2ccc(S(=O)(=O)Nc3ccc(C(F)(F)F)cc3)cc2C1=Cc1cccc2ccccc12 [10735/E09]	−3.9%
Cc1c(Br)cc(Br)c2c1C(=Cc1ccc([N+](=O)[O-])cc1)C(=O)N2 [10734/H06]	−32.2%

Structure (SMILES)	Biochem EGFR % Inhibition (P.167)
CNS(=O)(=O)c1ccc2c(c1)C(=Cc1cccc3ccccc13)C(=O)N2 [10735/D09]	−0.3%
Cc1c(Br)ccc2c1C(=Cc1cc(C(F)(F)F)cc(C(F)(F)F)c1)C(=O)N2 [10735/C06]	8.5%
O=C1Nc2c(Br)cc(Br)cc2C1=Cc1cccc2ccccc12 [10735/A09]	13.0%
CNS(=O)(=O)c1ccc2c(c1)C(=Cc1cc(F)cc(F)c1)C(=O)N2 [10735/D04]	3.8%
O=C1Nc2ccc(I)cc2C1=Cc1cccc(C(F)(F)F)c1 [10735/B05]	61.6%
CNS(=O)(=O)c1ccc2c(c1)C(=Cc1cc(C(F)(F)F)cc(C(F)(F)F)c1)C(=O)N2 [10735/D06]	8.0%
O=C1Nc2ccc(CCCl)cc2C1=Cc1ccc(F)c(F)c1 [10735/G03]	30.3%
O=C1Nc2ccc(S(=O)(=O)Nc3ccc(C(F)(F)F)cc3)cc2C1=Cc1cc(F)cc(F)c1 [10735/E04]	14.3%
O=C1Nc2ccc(I)cc2C1=Cc1cc(C(F)(F)F)cc(C(F)(F)F)c1 [10735/B06]	49.4%
Cc1ccccc1C=C1C(=O)Nc2ccc(S(=O)(=O)Nc3ccc(C(F)(F)F)cc3)cc21 [10735/E02]	16.7%
Cc1c(Br)ccc2c1C(=Cc1cccc3ccccc13)C(=O)N2 [10735/C09]	−22.1%
O=C1Nc2ccc(S(=O)(=O)Nc3ccc(C(F)(F)F)cc3)cc2C1=Cc1c(F)cccc1F [10735/E08]	10.2%
CNS(=O)(=O)c1ccc2c(c1)C(=Cc1ccccc1C)C(=O)N2 [10735/D02]	20.3%
Cc1c(Br)cc(Br)c2c1C(=Cc1ccc(O)c(O)c1)C(=O)N2 [10719/H03]	25.1%
CNS(=O)(=O)c1ccc2c(c1)C(=Cc1ccccc1C#N)C(=O)N2 [10735/D07]	−17.6%
Cc1c(Br)ccc2c1C(=Cc1ccc(-c3ccccc3)cc1)C(=O)N2 [10735/C11]	−6.4%
O=C1Nc2c(Br)cc(Br)cc2C1=Cc1ccc(-c2ccccc2)cc1 [10735/A11]	3.3%
O=C1Nc2ccc(S(=O)(=O)N3CCOCC3)cc2C1=Cc1ccc(-c2ccccc2)cc1 [10735/F11]	14.8%
O=C1Nc2ccc(CCCl)cc2C1=Cc1cc(C(F)(F)F)cc(C(F)(F)F)c1 [10735/G06]	2.1%
CNS(=O)(=O)c1ccc2c(c1)C(=Cc1ccc(Cl)cc1Cl)C(=O)N2 [10735/D10]	46.5%
Cc1ccccc1C=C1C(=O)Nc2c(Br)cc(Br)cc21 [10735/A02]	14.3%
Cc1c(Br)cc(Br)c2c1C(=Cc1ccco1)C(=O)N2 [10718/H10]	−5.7%
O=C1Nc2ccc(S(=O)(=O)Nc3ccc(C(F)(F)F)cc3)cc2C1=Cc1ccc(Cl)cc1Cl [10735/E10]	19.1%
N#Cc1ccccc1C=C1C(=O)Nc2ccc(S(=O)(=O)N3CCOCC3)cc21 [10735/F07]	28.9%
O=C1Nc2ccc(S(=O)(=O)N3CCOCC3)cc2C1=Cc1cc(C(F)(F)F)cc(C(F)(F)F)c1 [10735/F06]	13.0%
CNS(=O)(=O)c1ccc2c(c1)C(=Cc1c(F)cccc1F)C(=O)N2 [10735/D08]	−1.5%

Structure (SMILES)	Biochem EGFR % Inhibition (P.167)
O=C1Nc2c(Br)cc(Br)cc2C1=Cc1cccc(C(F)(F)F)c1 [10735/A05]	41.5%
Cc1c(Br)ccc2c1C(=Cc1ccccc1C#N)C(=O)N2 [10735/C07]	−4.9%
O=C1Nc2ccc(I)cc2C1=Cc1cccc2ccccc12 [10735/B09]	39.8%
O=C1Nc2ccc(I)cc2C1=Cc1ccc(Cl)cc1Cl [10735/B10]	30.1%
Cc1ccccc1C=C1C(=O)Nc2ccc(S(=O)(=O)N3CCOCC3)cc21 [10735/F02]	19.8%
O=C1Nc2ccc(I)cc2C1=Cc1cc(F)cc(F)c1 [10735/B04]	49.2%
Cc1c(Br)cc(Br)c2c1C(=Cc1ccc(Br)s1)C(=O)N2 [10734/H11]	−8.5%
O=C1Nc2c(Br)cc(Br)cc2C1=Cc1ccc(F)c(F)c1 [10735/A03]	28.8%
O=C1Nc2ccc(S(=O)(=O)N3CCOCC3)cc2C1=Cc1cccc(C(F)(F)F)c1 [10735/F05]	5.5%
CCOc1ccc(C=C2C(=O)Nc3c(Br)cc(Br)c(C)c32)cc1OC [10719/H02]	43.9%
CNS(=O)(=O)c1ccc2c(c1)C(=Cc1cccc(C(F)(F)F)c1)C(=O)N2 [10735/D05]	23.0%
O=C1Nc2ccc(S(=O)(=O)Nc3ccc(C(F)(F)F)cc3)cc2C1=Cc1cc(C(F)(F)F)cc(C(F)(F)F)c1 [10735/E06]	8.7%
CCN(CC)c1ccc(C=C2C(=O)Nc3c(Br)cc(Br)c(C)c32)c(O)c1 [10734/H05]	4.7%
CNS(=O)(=O)c1ccc2c(c1)C(=Cc1ccc(-c3ccccc3)cc1)C(=O)N2 [10735/D11]	−16.5%
Cc1ccccc1C=C1C(=O)Nc2ccc(Br)c(C)c21 [10735/C02]	1.6%
Cc1ccccc1C=C1C(=O)Nc2ccc(I)cc21 [10735/B02]	39.1%
O=C1Nc2ccc(S(=O)(=O)N3CCOCC3)cc2C1=Cc1c(F)cccc1F [10735/F08]	9.4%
Cc1ccccc1C=C1C(=O)Nc2ccc(CCCl)cc21 [10735/G02]	23.7%
O=C1Nc2ccc(S(=O)(=O)N3CCOCC3)cc2C1=Cc1ccc(Cl)cc1Cl [10735/F10]	15.7%
Cc1c(Br)cc(Br)c2c1C(=Cc1ccc(C(C)(C)C)cc1)C(=O)N2 [10734/H10]	−12.6%
Cc1c(Br)ccc2c1C(=Cc1cc(F)cc(F)c1)C(=O)N2 [10735/C04]	5.8%
O=C1Nc2ccc(S(=O)(=O)Nc3ccc(C(F)(F)F)cc3)cc2C1=Cc1ccc(F)c(F)c1 [10735/E03]	18.9%
Cc1c(Br)cc(Br)c2c1C(=Cc1ccc(O)c(Br)c1)C(=O)N2 [10734/H09]	−4.2%
COc1cc(OC)c(C=C2C(=O)Nc3c(Br)cc(Br)c(C)c32)c(OC)c1 [10719/H06]	−28.0%
O=C1Nc2c(Br)cc(Br)cc2C1=Cc1c(F)cccc1F [10735/A08]	10.9%
